US11484708B2, “Methods and devices for surgical pre-treatment” (Vomaris Innovations, Inc., priority 2014, dated 2022)

How the values were obtained:
Human keratinocytes = experiment: in vitro scratch assay (cell migration); type: cell-based
Text: The in vitro scratch assay is an easy, low-cost and well-developed method to measure cell migration in vitro. The basic steps involve creating a “scratch” in a cell monolayer, capturing images at the beginning and at regular intervals during cell migration to close the scratch, and comparing the images to quantify the migration rate of the cells. Compared to other methods, the in vitro scratch assay is particularly suitable for studies on the effects of cell-matrix and cell-cell interactions on cell migration, mimic cell migration during wound healing in vivo and are compatible with imaging of live cells during migration to monitor intracellular events if desired. In addition to monitoring migration of homogenous cell populations, this method has also been adopted to measure migration of individual cells in the leading edge of the scratch.
Human keratinocytes were plated under plated under placebo or a LLEC system described herein (labeled “PROCELLERA®”). Cells were also plated under silver-only or zinc-only dressings. After 24 hours, the scratch assay was performed.
Cell culture—Immortalized HaCaT human keratinocytes were grown in Dulbecco's low-glucose modified Eagle's medium (Life Technologies, Gaithersburg, Md., U.S.A.) supplemented with 10% fetal bovine serum, 100 U/ml penicillin, and 100 μg/ml streptomycin. The cells were maintained in a standard culture incubator with humidified air containing 5% CO2 at 37° C.
Scratch assay—A cell migration assay was performed using culture inserts (IBIDI®, Verona, Wis.) according to the manufacturer's instructions. Cell migration was measured using time-lapse phase-contrast microscopy following withdrawal of the insert. Images were analyzed using the AxioVision Rel 4.8 software.
N-Acetyl Cysteine Treatment—Cells were pretreated with 5 mM of the thiol antioxidant N-acetylcysteine (Sigma) for 1 h before start of the scratch assay.
IGF-1 R inhibition—When applicable, cells were preincubated with 50 nM IGF-1 R inhibitor, picropodophyllin (Calbiochem, Mass.) just prior to the Scratch Assay. […]

HUVEC cells [1] = experiment: EF-induced reorientation of endothelial cells (orientation index Oi); type: cell-based, human
Method: HUVEC cells were seeded in a trough formed by two parallel (1 cm apart) strips of glass coverslip (No. 1, length of 22 mm) fixed to the base of the dish with silicone grease. Scratch lines were made perpendicular to the long axis of the chamber with a fine sterile needle and used as reference marks for directed cell migration. Cells were incubated for 24-48 hours (37° C., 5% CO2) before a roof coverslip was applied and sealed with silicone grease. The final dimensions of the chamber, through which current was passed, were 22×10×0.2 mm. Agar-salt bridges not less than 15 cm long were used to connect silver/silver-chloride electrodes in beakers of Steinberg's solution (58 mM NaCl, 0.67 mM KCl, 0.44 mM Ca(NO3)2, 1.3 mM MgSO4, 4.6 mM Trizma base, pH 7.8-8.0), to pools of excess culture medium at either side of the chamber. Field strengths were measured directly at the beginning of, the end of and during each experiment. […] (50 μM), the Rho kinase inhibitor Y27632 (50 μM), both Akt and Rho kinase inhibitors (10 μM each) or latrunculin (50 nM) for 1 hour before EF stimulation. The same concentration of drug was present during EF exposure in a CO2 incubator.
A series of images was taken with an image analyser immediately before EF exposure and at 4, 8 and 24 hours of EF exposure. Cell orientation was quantified as an orientation index (Oi), which is defined as Oi=cos2(α), where α is the angle formed by the long axis of a cell with a line drawn perpendicular to the field lines. A cell with its long axis parallel to the vector of the EF will have an Oi of −1, and a cell with its long axis exactly perpendicular to the EF vector will have an Oi of +1. […] The significance of this two-dimensional orientation distribution against randomness was calculated using Rayleigh's distribution. A long:short axis ratio was calculated for assessment of elongation.

HUVEC cells [2] = experiment: EF-induced elongation of endothelial cells (long:short axis ratio); type: cell-based, human; conditions: for long:short axis ratio in EF-treated cells: inhibitor 50 μM, vs control
Method: Tissue culture reagents were obtained from Life Technologies UK. […] Rhodamine-phalloidin (E3478) was obtained from Molecular Probes (Leiden, The Netherlands) and anti-tubulin conjugated with FITC was obtained from Sigma. The HUVEC cell line from ATCC was used prior to passage 10. Dulbecco's modified Eagle's medium (DMEM) with 10% fetal bovine serum (FBS) was used for culture cells and EF exposure experiments.
HUVEC cells were seeded in a trough formed by two parallel (1 cm apart) strips of glass coverslip (No. 1, length of 22 mm) fixed to the base of the dish with silicone grease. Scratch lines were made perpendicular to the long axis of the chamber with a fine sterile needle and used as reference marks for directed cell migration. Cells were incubated for 24-48 hours (37° C., 5% CO2) before a roof coverslip was applied and sealed with silicone grease. The final dimensions of the chamber, through which current was passed, were 22×10×0.2 mm. Agar-salt bridges not less than 15 cm long were used to connect silver/silver-chloride electrodes in beakers of Steinberg's solution (58 mM NaCl, 0.67 mM KCl, 0.44 mM Ca(NO3)2, 1.3 mM MgSO4, 4.6 mM Trizma base, pH 7.8-8.0), to pools of excess culture medium at either side of the chamber. Field strengths were measured directly at the beginning of, the end of and during each experiment. No fluctuations in field strength were observed. […] (50 μM), the Rho kinase inhibitor Y27632 (50 μM), both Akt and Rho kinase inhibitors (10 μM each) or latrunculin (50 nM) for 1 hour before EF stimulation. […]
A series of images was taken with an image analyser immediately before EF exposure and at 4, 8 and 24 hours of EF exposure. Cell orientation was quantified as an orientation index (Oi), which is defined as Oi=cos2(α), where α is the angle formed by the long axis of a cell with a line drawn perpendicular to the field lines. […] The significance of this two-dimensional orientation distribution against randomness was calculated using Rayleigh's distribution. A long:short axis ratio was calculated for assessment of elongation.

[3] = inhibitor 50 μM, 1 hour before and during EF

Q: catalase was tested. Which “increased migration triggered by the LLEC, with over-expression of catalase” value (Human keratinocytes; HaCaT transfected with AdCatalase, 72 h) did it give?
A: attenuated the increased migration

Q: Which “orientation response of cells in an EF” value (HUVEC cells [1]; latrunculin 50 nM, P<0.001) does the source give for `C/C1=C/C(=O)O[C@@H]2C[C@@H](CC[C@H](C)/C=C\C=C\CC1)O[C@@](O)([C@@H]1CSC(=O)N1)C2` [Latrunculin A] here?
A: suppressed the orientation response significantly

Q: What about the EF-induced elongation response (HUVEC cells [2]; latrunculin 50 nM) of the same compound?
A: completely abolished the EF-induced elongation response

Q: How did the “orientation response of cells in an EF” value (HUVEC cells [1]; [3]) turn out when “1-L-6-hydroxymethyl-chiro-inositol 2-[(R)-2-O-methyl-3-O-octadecylcarbonate] [Akt inhibitor]” was run?
A: significantly decreased the orientation response

Q: And the “long:short axis ratio in EF-treated cells” value (HUVEC cells [2])?
A: significantly decreased the long:short axis ratio

Q: With `COc1cc2ncnc(Nc3ccc(Cl)cc3F)c2cc1OC` [VEGFR inhibitor, 4-[(4′-chloro-2′-fluoro)phenylamino]-6,7-dimethoxyquinazoline] as the compound, how does the “orientation response of cells in an EF” value (HUVEC cells [1]; [3]) read?
A: completely abolished the reorientation of cells in an EF

Q: For `C[C@@H](N)[C@H]1CC[C@H](C(=O)Nc2ccncc2)CC1` [Y27632], which “long:short axis ratio in EF-treated cells” value (HUVEC cells [2]) is on record?
A: significantly decreased the long:short axis ratio

Q: `CC(=O)N[C@@H](CS)C(=O)O` [N-Acetyl Cysteine, N-acetylcysteine] was tested. Which “increased keratinocyte migration observed with LLEC, in presence of N-acetyl cysteine” value (Human keratinocytes; 5 mM, 1 h pretreatment before scratch assay) did it give?
A: failed to reproduce the increased migration

Q: With `COc1cc([C@@H]2c3cc4c(cc3[C@H](O)[C@H]3COC(=O)[C@@H]23)OCO4)cc(OC)c1OC` [IGF-1 R inhibitor, picropodophyllin] as the compound, how does the “increased keratinocyte migration observed with LLEC, in presence of IGF-1 R inhibitor” value (Human keratinocytes; 50 nM picropodophyllin just prior to scratch assay) read?
A: attenuated the increased keratinocyte migration
